ChEMBL document CHEMBL4402508, “Natural product-drug conjugates for modulation of TRPV1-expressing tumors” (Bioorg Med Chem, 2019)
Activity calls are given as the source filed them. No cut-off for these calls is given here.

What was measured:
[1] = biological target: Transient receptor potential cation channel subfamily V member 1 (Homo sapiens) (UniProt Q8NER1); test: Agonist activity at TRPV1 (unknown origin) expressed in HEK-293 cells assessed as induction of calcium influx at 50 uM incubated for 48 hrs by Fura2-AM dye based calcium imaging assay relative to capsaicin; format: cell-based
[2] = biological target: Transient receptor potential cation channel subfamily V member 1 (Homo sapiens) (UniProt Q8NER1); test: Agonist activity at TRPV1 (unknown origin) expressed in HEK-293 cells assessed as induction of calcium influx at 50 uM incubated for 48 hrs by Fura2-AM dye based calcium imaging assay; format: cell-based
[3] = Drug degradation in PBS assessed as hydrolysis of western conjugate region at 0.2 mM at 37 degC incubated up to 6 hrs by LC-MS analysis; format: physicochemical; conditions: buffer, 200 µM; for Drug degradation: TDE = time-dependent effect
[4] = tested on: PC-3; test: Cytotoxicity in […] expressing human PC3 cells assessed as reduction in cell viability at 200 uM incubated for 24 to 72 hrs by Cell-titer blue assay; format: functional, cell-based; conditions: TDE = time-dependent effect
[5] = biological target: Transient receptor potential cation channel subfamily V member 1 (Homo sapiens) (UniProt Q8NER1); test: Agonist activity at TRPV1 (unknown origin) expressed in HEK-293 cells assessed as induction of calcium influx at 5 uM incubated for 48 hrs by Fura2-AM dye based calcium imaging assay; format: cell-based
[6] = biological target: Transient receptor potential cation channel subfamily V member 1 (Homo sapiens) (UniProt Q8NER1); test: Binding affinity to TRPV1 in human U251 cells assessed as compound internalization by measuring compound localization in intracellular compartment at 20 uM incubated for 24 hrs by azide-488 fluorophore based in situ click reaction assay and confocal microscopy; format: cell-based

Transient receptor potential cation channel subfamily V member 1 (Homo sapiens), sequence (Q8NER1 whole entry): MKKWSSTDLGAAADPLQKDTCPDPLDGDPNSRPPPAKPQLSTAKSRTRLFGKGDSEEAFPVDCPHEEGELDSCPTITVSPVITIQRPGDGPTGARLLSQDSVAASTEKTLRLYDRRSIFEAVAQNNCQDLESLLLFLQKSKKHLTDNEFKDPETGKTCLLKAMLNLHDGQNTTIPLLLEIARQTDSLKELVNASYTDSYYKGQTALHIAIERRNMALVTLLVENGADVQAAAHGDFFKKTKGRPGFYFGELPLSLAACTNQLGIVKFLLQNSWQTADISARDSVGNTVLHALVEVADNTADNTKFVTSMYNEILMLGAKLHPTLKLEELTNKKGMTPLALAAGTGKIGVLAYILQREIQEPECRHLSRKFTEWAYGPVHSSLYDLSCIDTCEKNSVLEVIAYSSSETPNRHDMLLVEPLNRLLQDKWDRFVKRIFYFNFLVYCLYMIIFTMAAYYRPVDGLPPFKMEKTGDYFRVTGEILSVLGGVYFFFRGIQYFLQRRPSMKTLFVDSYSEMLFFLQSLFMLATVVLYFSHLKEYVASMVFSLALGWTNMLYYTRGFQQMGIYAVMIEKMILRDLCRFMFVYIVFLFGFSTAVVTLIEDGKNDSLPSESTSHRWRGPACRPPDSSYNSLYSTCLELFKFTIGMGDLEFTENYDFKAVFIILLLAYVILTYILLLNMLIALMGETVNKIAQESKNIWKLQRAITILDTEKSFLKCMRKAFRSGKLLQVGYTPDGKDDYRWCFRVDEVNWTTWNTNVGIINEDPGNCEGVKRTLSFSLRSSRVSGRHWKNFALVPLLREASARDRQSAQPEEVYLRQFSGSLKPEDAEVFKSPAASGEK

| Compound | Activity [1] [%] | Activity [2] | Drug degradation [3] | Activity [5] | Activity [6] | Activity [4] | Stability [3] |
| --- | --- | --- | --- | --- | --- | --- | --- |
| COc1cc(CNC(=O)CNC(=O)c2ncn3c(=O)n(C)nnc23)ccc1O | 40 | Active | Tde |  |  | Tde |  |
| C#CCCCCCCCCC(=O)NCc1ccc(O)c(OC)c1 |  |  |  | Active | Active |  |  |
| COc1cc(CNC(=O)CCCC/C=C/C(C)C)ccc1O [CAPSAICIN] |  |  |  |  |  |  | Stable |
| Cn1nnc2c(C(N)=O)ncn2c1=O |  |  |  |  |  | Tde |  |

More lines, main results first:

| Activity [1] [%] | Activity [2] | Drug degradation [3] | Activity [5] | Activity [6] | Compound | Activity [4] | Stability [3] |
| --- | --- | --- | --- | --- | --- | --- | --- |
| 40 | Active | Tde |  |  | COc1cc(CNC(=O)CCCCNC(=O)c2ncn3c(=O)n(C)nnc23)ccc1O | Tde |  |
| 40 | Active | Tde |  |  | COc1cc(CNC(=O)CCCCCCNC(=O)c2ncn3c(=O)n(C)nnc23)ccc1O | Tde |  |
